Literature values, collected in US12064376B2, “Rho kinase inhibitor releasing implants and related methods of use” (priority 2020, dated 2024).

What was measured:
[1] = tested on: Porcine corneal endothelial cells (CECs); conditions: 10 μM Y-27632 or 2.5 μM H-1152, 2, 24 and 48 hours
[2] = tested on: monkey model of corneal endothelial cell damage
[3] = tested on: Fuch's corneal dystrophy
[4] = tested on: bullous keratopathy
[5] = tested on: rabbit model of corneal endothelial dysfunction; conditions: 1 mM topical, 2 drops QID three days then TID seven days
[6] = tested on: human corneal endothelial cells (HCEC); conditions: ripasudil 0.3 to 30 μM, 48 hours, HCEC in vitro
[7] = tested on: rabbit corneal endothelial damage model; conditions: freeze model, topical 0.4% or 0.8% drops BID or QID
[8] = tested on: rabbit corneal endothelial damage model; conditions: scrape model
[9] = tested on: failed descemetorhexis; conditions: patient with failed descemetorhexis
[10] = at 1 year, MCEC and ROCK inhibitor eyes
[11] = by 24 weeks, eleven patients, 1×10^6 human CECs per 300 μL with Y-27632

## C[C@@H](N)[C@H]1CC[C@H](C(=O)Nc2ccncc2)CC1 [Y-27632]
[1]
  cell morphology: monolayer with polygonal structure and tight junctions
  migration of cells from the scratch: enhanced
[2]; 5×10^5 CECs in 200 μl with ROCK inhibitor, intracameral
  survival and engraftment of injected cultured endothelial cells: enhanced
[2]; MCEC with concomitant ROCK inhibitor, intracameral injection
  adverse events: without adverse events such as glaucoma
[2]; [10]
  corneal clarity: clear corneas
  corneal endothelial cell density: 2000 cells/mm^2
[3]; Fuch's corneal dystrophy, eye drop
  preserving corneal clarity: effective
[3]; Fuch's patients
  corneal thickening: decrease
[3]; mild (central edema) versus severe (diffuse edema)
  efficacy by severity of corneal endothelial dysfunction: effective in mild cases (central edema) of corneal endothelial dysfunction, but not severe (diffuse edema)
[4]; [11]
  number of patients with >500 cells/mm^2: 11
  number of patients with >1000 cells/mm^2: 10
[4]; eleven patients
  adverse events: One case of steroid induced intraocular pressure (IOP) and no other adverse events
[4]; in all but 1 case, corneas became clear
  corneal thickness: < 630 μm

## Cc1cncc2cccc(S(=O)(=O)N3CCCNC[C@@H]3C)c12 [H-1152]
[1]
  cell morphology: monolayer with polygonal structure and tight junctions
  migration of cells from the scratch: enhanced
[5]
  corneal thickness versus controls: less

## C[C@H]1CNCCCN1S(=O)(=O)c1cccc2cncc(F)c12 [ripasudil]
[6]
  DNA and endothelial cell proliferation: significantly enhanced
[7]
  corneal haze versus controls: less hazy corneas
  proliferation in treated eyes: better in the ROCK inhibitor treated eyes in a dose dependent fashion
  wound size versus controls: smaller
[8]; day 14, control 0/6
  treated eyes clear: 5/6
[8]; no change with control
  corneal thickening: ⅓
[9]
  outcome of case study: salvaged patient
